Paper PMC7802075 (ACS Infectious Diseases, 2020)
“Also recorded” adds a separate entry of the source. Like-named read-outs stand apart in the source and are kept apart here.

Key:
[1] = test system: L. major (FV1) promastigotes; assay: Antipromastigote resazurin assay, L. major (FV1) wild type; assay type: cell-based, Leishmania major; settings: for EC50 / inhibition of growth at 10000 µM: Leishmania major; for EC50 / antileishmanial activity: secondary dose response; for EC50: L. major (FV1), read-out: EC50 against L. major promastigotes
[2] = biological target: T1, LmjIPCS (inositol phosphorylceramide synthase from L. major) (Leishmania major, UniProt E9AFX2); assay: biochemical; assay type: biochemical; parameters: inhibition: dose or concentration left out as unconfirmed; settings: for inhibition: read-out: inhibition LmjIPCS
T1 sequence (E9AFX2 1-338): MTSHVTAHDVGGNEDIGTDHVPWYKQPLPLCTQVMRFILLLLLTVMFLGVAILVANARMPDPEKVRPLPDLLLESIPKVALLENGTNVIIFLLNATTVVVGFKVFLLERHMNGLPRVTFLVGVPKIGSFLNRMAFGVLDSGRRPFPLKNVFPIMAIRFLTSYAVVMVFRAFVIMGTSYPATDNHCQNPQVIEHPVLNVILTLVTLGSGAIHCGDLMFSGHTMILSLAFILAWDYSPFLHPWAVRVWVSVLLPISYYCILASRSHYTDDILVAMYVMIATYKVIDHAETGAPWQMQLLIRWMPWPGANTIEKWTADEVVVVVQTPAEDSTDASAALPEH

[3] = test system: clemastine fumarate-resistant L. major promastigotes (cl.C and cl.D); assay type: cell-based, Leishmania major
[4] = NINDS set screen against L. major promastigotes, single concentration printed as 10mM
[5] = L. major promastigotes, dose response
[6] = NINDS set screen, single concentration printed as 20mM

Compound	10mM inhibition L. major [1, 4]	20mM inhibition LmjIPCS [2]	20mM inhibition LmjIPCS [2, 6]	other results
TANNIC ACID	<5%	91%		
O=c1[nH]c2ccccc2n1C1CCN(CCCC(c2ccc(F)cc2)c2ccc(F)cc2)CC1 [pimozide 10, pimozide, reference compound]	56%	77%		ED50 vs L. major [1, 5]: 22900 µM; EC50 [1]: > 1 µM; IC50 [2]: 4.14 µM; LmjIPCS inhibition ([2]; secondary dose response): confirmed
CN(C)CCCN1c2ccccc2Sc2ccc(Cl)cc21 [chlorpromazine 3, chlorpromazine, reference compound]	76%	88%		ED50 vs L. major [1, 5]: 9800 µM; EC50 [1]: > 1 µM; IC50 [2]: 4.7 µM; LmjIPCS inhibition ([2]; secondary dose response): confirmed
CCCc1cc(=O)[nH]c(=S)[nH]1 [PROPYLTHIOURACIL]		73%		10mM inhibition L. major [1]: <5%
CC(C)CC(N(C)C)C1(c2ccc(Cl)cc2)CCC1 (centres unmarked) [SIBUTRAMINE]	<5%	74%		
CC(NCCC(c1ccccc1)c1ccccc1)c1ccccc1 (centres unmarked) [fendiline 6, fendiline, reference compound]	74%		71%	ED50 vs L. major [1, 5]: 7640 µM; EC50 [1]: > 1 µM; IC50 [2]: 4.22 µM; LmjIPCS inhibition ([2]; secondary dose response): confirmed
Cc1nnc(NS(=O)(=O)c2ccc(N)cc2)s1 [sulfamethizole 14, sulfamethizole, reference compound]	68%	77%		ED50 vs L. major [1, 5]: 39600 µM; antileishmanial activity ([1]; L. major promastigotes): poor antileishmanial activity; IC50 [2]: > 100 µM; IC50 against LmjIPCS [2]: could not be determined
CNCCC=C1c2ccccc2CCc2ccccc21 [NORTRIPTYLINE]		81%		10mM inhibition L. major [1]: <5%
CN(C)CCCN1c2ccccc2Sc2ccccc21 [PROMAZINE]	<5%	77%		
CCN(CCCc1ccccc1)CCCc1ccccc1 [ALVERINE]	<5%		70%	
C[C@]12CC[C@@H]3c4ccc(O)cc4CC[C@H]3[C@@H]1CC[C@@H]2OC(=O)CCC1CCCC1 [ESTRADIOL CYPIONATE]	<5%	83%		
CCOC(=O)C1=C(COCCN)NC(C)=C(C(=O)OC)C1c1ccccc1Cl (centres unmarked) [amlodipine 2, amlodipine, reference compound]	62%	80%		ED50 vs L. major [1, 5]: 1910 µM; EC50 [1]: > 1 µM; IC50 [2]: 3 µM; LmjIPCS inhibition ([2]; secondary dose response): confirmed
CCC(=O)O[C@H]1CC[C@H]2[C@@H]3CCc4cc(O)ccc4[C@H]3CC[C@]12C [ESTRADIOL PROPIONATE]	<5%		74%	
CC(CN1c2ccccc2Sc2ccccc21)N(C)C (centres unmarked) [PROMETHAZINE]	<5%		78%	
C=CC1=C(C)c2cc3[nH]c(cc4nc(cc5[nH]c(cc1n2)c(C)c5CCC(=O)O)C(CCC(=O)O)=C4C)c(C)c3C=C [PROTOPORPHYRIN IX]	<5%		77%	
Cc1cc(C(C)(C)C)c(O)c(C)c1CC1=NCCN1 [OXYMETAZOLINE]	<5%		75%	
Cc1cccc(CN2CCN(C(c3ccccc3)c3ccc(Cl)cc3)CC2)c1 (centres unmarked) [MECLIZINE]	<5%	78%		
CCc1nc(N)nc(N)c1-c1ccc(Cl)cc1 [PYRIMETHAMINE]	<5%		77%	
Cc1cc(N)c2ccccc2[n+]1CCCCCCCCCC[n+]1c(C)cc(N)c2ccccc21	<5%	72%		
NC[C@@H]1O[C@H](O[C@H]2[C@@H](O)[C@H](O[C@@H]3[C@@H](O)[C@H](N)C[C@H](N)[C@H]3O[C@H]3O[C@H](CN)[C@@H](O)[C@H](O)[C@H]3N)O[C@@H]2CO)[C@H](N)[C@@H](O)[C@@H]1O [NEOMYCIN]	<5%		88%	
CCCC1O[C@@H]2C[C@H]3[C@@H]4CCC5=CC(=O)C=C[C@]5(C)[C@H]4[C@@H](O)C[C@]3(C)[C@]2(C(=O)CO)O1 (some centres unmarked) [BUDESONIDE]	<5%		79%	
CC(CN(C)C)CN1c2ccccc2Sc2ccccc21 (centres unmarked) [TRIMEPRAZINE]	<5%	71%		

Compound	10mM inhibition L. major [1, 4]	20mM inhibition LmjIPCS [2]	20mM inhibition LmjIPCS [2, 6]	other results
O=C1c2c(O)cccc2Cc2cccc(O)c21 [ANTHRALIN]	<5%		70%	
CCN1C[C@]2(COC)[C@H](O)C[C@H](OC)[C@@]34[C@@H]5C[C@@]6(O)[C@H](OC(=O)c7ccccc7)[C@@H]5[C@@](OC(C)=O)([C@@H]([C@H](OC)[C@H]23)[C@@H]14)[C@@H](O)[C@@H]6OC [ACONITINE]	<5%	97%		
N=C(N)c1ccc(OCCCCCOc2ccc(C(=N)N)cc2)cc1 [pentamidine 9, pentamidine, reference compound]				10mM inhibition L. major [1]: 59%; ED50 vs L. major [1]: 2050 µM; cross-resistance in clemastine fumarate-resistant L. major clones [3]: no evidence for cross-resistance; also recorded: statistically significant hypersensitivity
CCCCC(CC)CN1CN(CC(CC)CCCC)CC(C)(N)C1 (centres unmarked) [HEXETIDINE]	<5%		85%	
CN(C)CCC=C1c2ccccc2CCc2ccccc21 [AMITRIPTYLINE]	<5%	82%		
N=C1C=CC(=C(c2ccc(N)cc2)c2ccc(N)cc2)C=C1 [pararosaniline 8, pararosaniline]	75%	78%		ED50 vs L. major [1, 5]: 9780 µM; antileishmanial activity ([1]; L. major promastigotes): poor antileishmanial activity; IC50 ([2]; dose response, read-out: IC50 vs LmjIPCS): > 100 µM; IC50 against LmjIPCS ([2]; secondary dose response, commercially sourced samples): could not be determined
COC1=C[C@@H](C)[C@@H]2C[C@H]3OC(=O)C[C@H]4C(C)=C(OC)C(=O)[C@H]([C@@]2(C)C1=O)[C@@]34C [QUASSIN]			70%	inhibition of growth at 10000 µM [1, 4]: < 5%
CCCCOc1ccc(OCCCN2CCOCC2)cc1 [PRAMOXINE]	<5%	71%		
CC(C)=CCc1c2c(c3occ(-c4ccc(O)c(O)c4)c(=O)c3c1O)C=CC(C)(C)O2 [POMIFERIN]	<5%		73%	
C=C[C@H]1C[N@@]2CC[C@H]1C[C@H]2[C@H](O)c1ccnc2ccc(OC)cc12 [QUININE]	<5%	70%		
CN1CCc2c(c3ccccc3n2Cc2ccccc2)C1 [MEBHYDROLIN]	<5%		72%	
[H]/N=C(/NCCCCC)N/N=C/c1c[nH]c2ccc(OC)cc12 [TEGASEROD]			71%	inhibition of growth at 10000 µM [1, 4]: < 5%
CCCCCCCCNC(C)C(O)c1ccc(SC(C)C)cc1 (centres unmarked) [suloctidil 15, suloctidil, reference compound]	74%		81%	ED50 vs L. major [1, 5]: 1330 µM; EC50 [1]: > 1 µM; IC50 [2]: 3.67 µM; LmjIPCS inhibition ([2]; secondary dose response): confirmed
NC[C@@H]1O[C@H](O[C@H]2[C@@H](O)[C@H](O[C@@H]3[C@@H](O)[C@H](N)C[C@H](N)[C@H]3O[C@H]3O[C@H](CO)[C@@H](O)[C@H](O)[C@H]3N)O[C@@H]2CO)[C@H](N)[C@@H](O)[C@@H]1O [paromomycin, reference compound]				cross-resistance in clemastine fumarate-resistant L. major clones [3]: no evidence for cross-resistance; inhibition [2]: -17%
CN1CCN(CCCN2c3ccccc3Sc3ccc(C(F)(F)F)cc32)CC1 [trifluoperazine 16, trifluoperazine, reference compound]	67%	86%		ED50 vs L. major [1, 5]: 7170 µM; EC50 [1]: > 1 µM; IC50 [2]: 5.03 µM; LmjIPCS inhibition ([2]; secondary dose response): confirmed
COc1ccccc1OCCNCC(O)COc1cccc2[nH]c3ccccc3c12 (centres unmarked) [CARVEDILOL]	<5%	73%		
CCCCCCCCCCCCCCCCOP(=O)([O-])OCC[N+](C)(C)C [miltefosine, reference compound]				cross-resistance in clemastine fumarate-resistant L. major clones [3]: no evidence for cross-resistance; inhibition [2]: 3.35%
CC1=C2C(=CO[C@H](C)[C@H]2C)C(O)=C(C(=O)O)C1=O [CITRININ]	<5%	76%		
CO[C@]12C[C@@H](COC(=O)c3cncc(Br)c3)CN(C)[C@@H]1Cc1cn(C)c3cccc2c13 [NICERGOLINE]	<5%	80%		
CCCCCCCCCCCCCCCC[N+](C)(C)C [CETRIMONIUM]	<5%	75%		
GINKGOLIC ACID	<5%	73%		
